Measured values as given in ChEMBL document CHEMBL6109117, “Synthesis of an RBM39 Degrader That Downregulates CEP192 and Induces Disorganized Spindle Structures” (J Med Chem, 2025).
The source made the active and inactive calls. The calls are words filed in the database; no cut-off is given here.

Columns and labels:
[1] = test system: MV4-11; assay: Induction of spliceosome function impairment in human MV4-11 cells assessed as increase in CUL4A RI transcript incubated for 12 hrs by qRT-PCR analysis; type: functional, cell-based; details: dose 1-10 µM
[2] = test system: HCT-116; assay: Effect on RNA splicing in human HCT-116 cells assessed as ESPL1 gene alternative 5' splice site at 2 uM incubated for 12 hrs by RNA-seq analysis; type: functional, cell-based
[3] = test system: K562; assay: Effect on RNA splicing in human K562 cells assessed as RTTN gene skipping exon at 2 uM incubated for 12 hrs by RNA-seq analysis; type: functional, cell-based
[4] = test system: HCT-116; assay: Effect on RNA splicing in human HCT-116 cells assessed as ESPL1 gene exon splicing at 2 uM incubated for 12 hrs by RNA-seq analysis; type: functional, cell-based
[5] = test system: HCT-116; assay: Induction of RBM39 degradation in human HCT-116 cells at 3 to 300 nM incubated for 24 hrs in presence of MLN4924 by Western blot analysis; type: cell-based; details: dose 3-300 nM
[6] = test system: HCT-116; assay: Induction of RBM39 degradation in human HCT-116 cells at 0.05 to 5 uM incubated for 24 hrs in presence of MG132 by Western blot analysis; type: cell-based; details: dose 0.05-5 µM
[7] = test system: MV4-11; assay: Induction of spliceosome function impairment in human MV4-11 cells assessed as increase in NCKAP1L RI transcript incubated for 12 hrs by qRT-PCR analysis; type: functional, cell-based; details: dose 1-10 µM
[8] = test system: K562; assay: Effect on RNA splicing in human K562 cells assessed as CEP192 gene skipping exons up to 10 uM by PCR analysis; type: functional, cell-based; details: time 1-24 hrs
[9] = test system: K562; assay: Induction of spliceosome function impairment in human K562 cells assessed as decrease in PRPF38A transcript at 1 to 10 uM incubated for 12 hrs by qRT-PCR analysis; type: functional, cell-based; details: dose 1-10 µM
[10] = test system: HCT-116; assay: Effect on RNA splicing in human HCT-116 cells assessed as MCL-1 gene alternative splicing at 2 uM incubated for 12 hrs by RNA-seq analysis; type: functional, cell-based
[11] = Effect on mitosis in human HCT-116 cells assessed as normal mitotic cells at 1 uM incubated for 48 hrs by immunofluorescence based analysis relative to control; type: functional
[12] = test system: HCT-116; assay: Induction of RBM39 degradation in human HCT-116 cells at 0.1 to 1 uM incubated for 24 hrs by Western blot analysis; type: cell-based; details: dose 0.1-1 µM
[13] = test system: HCT-116; assay: Effect on RNA splicing in human HCT-116 cells assessed as KNL1 gene exon splicing at 2 uM incubated for 12 hrs by RNA-seq analysis; type: functional, cell-based
[14] = test system: HCT-116; assay: Effect on RNA splicing in human HCT-116 cells assessed as RTTN gene exon splicing at 2 uM incubated for 12 hrs by RNA-seq analysis; type: functional, cell-based
[15] = test system: K562; assay: Effect on RNA splicing in human K562 cells assessed as KNL1 gene skipping exon at 2 uM incubated for 12 hrs by RNA-seq analysis; type: functional, cell-based
[16] = test system: HCT-116; assay: Effect on RNA splicing in human HCT-116 cells assessed as RTTN gene retention of intron at 2 uM incubated for 12 hrs by RNA-seq analysis; type: functional, cell-based
[17] = test system: K562; assay: Effect on RNA splicing in human K562 cells assessed as CEP192 gene alternative 3' splicing site at 2 uM incubated for 12 hrs by RNA-seq analysis; type: functional, cell-based
[18] = test system: HCT-116; assay: Induction of apoptosis in human HCT-116 cells assessed as change in PARP level at 0.1 to 5 uM incubated for 48 hrs by Western blot analysis; type: functional, cell-based; details: dose 0.1-5 µM
[19] = test system: HCT-116; assay: Downregulation of KNL1 expression in human HCT-116 cells incubated for 24 hrs by Western blot analysis; type: functional, cell-based
[20] = test system: K562; assay: Induction of spliceosome function impairment in human K562 cells assessed as increase in PRPF38A RI transcript incubated for 12 hrs by qRT-PCR analysis; type: functional, cell-based; details: dose 1-10 µM
[21] = Competitive inhibition of N-terminal His-tagged RBM39 (146 to 326 residues)/DCAF15 (2 to 600 residues)/full-length DDB1 (1 to 1140 residues)(unknown origin) incubated for 1 hr in presence of (R)-N-(3-(N-(3-Cyano-4-methyl-1H-indol-7-yl)sulfamoyl)phenyl)-2-(2-(((6-(3-(3',6'-dihydroxy-3-oxo-3H-spiro[isobenzofuran-1,9'-xanthen]-5-yl)thioureido)hexyl)amino)methyl)pyrrolidin-1-yl)-2-oxoacetamide by fluorescence polarization assay; parameters: species or system Homo sapiens
[22] = test system: HCT-116; assay: Induction of cell cycle arrest in human HCT-116 cells assessed as accumulation at G2/M phase at 5 uM incubated for 48 hrs by PI staining based flow cytometry relative to control; type: functional
[23] = test system: HCT-116; assay: Induction of RBM39 degradation in human HCT-116 cells assessed as fold change at 0.1 uM incubated for 24 hrs by Western blot analysis relative to control; type: cell-based
[24] = test system: K562; assay: Induction of spliceosome function impairment in human K562 cells assessed as increase in CUL4A RI transcript incubated for 12 hrs by qRT-PCR analysis; type: functional, cell-based; details: dose 1-10 µM
[25] = test system: HCT-116; assay: Induction of RBM39 degradation in human HCT-116 cells incubated for 24 hrs by Western blot analysis; type: cell-based
[26] = test system: HCT-116; assay: Induction of RBM39 degradation in human HCT-116 cells at 1 uM incubated for 24 hrs by mass spectrometry-based proteomic analysis; type: cell-based
[27] = test system: K562; assay: Induction of spliceosome function impairment in human K562 cells assessed as decrease in NCKAP1L transcript at 1 to 10 uM incubated for 12 hrs by qRT-PCR analysis; type: functional, cell-based; details: dose 1-10 µM
[28] = test system: MV4-11; assay: Induction of spliceosome function impairment in human MV4-11 cells assessed as decrease in PRPF38A transcript at 1 to 10 uM incubated for 12 hrs by qRT-PCR analysis; type: functional, cell-based; details: dose 1-10 µM
[29] = test system: HCT-116; assay: Effect on RNA splicing in human HCT-116 cells assessed as CEP192 gene exon splicing at 2 uM incubated for 12 hrs by RNA-seq analysis; type: functional, cell-based
[30] = Effect on RNA splicing in human HCT-116 cells assessed as number of mutually exclusive exons at 2 uM incubated for 12 hrs by RNA-seq analysis; type: functional
[31] = test system: HCT-116; assay: Induction of cell cycle arrest in human HCT-116 cells assessed as accumulation at G2/M phase at 0.1 to 5 uM incubated for 48 hrs by PI staining based flow cytometry; type: functional; details: dose 0.1-5 µM
[32] = test system: K562; assay: Induction of spliceosome function impairment in human K562 cells assessed as decrease in ZNF207 transcript at 1 to 10 uM incubated for 12 hrs by qRT-PCR analysis; type: functional, cell-based; details: dose 1-10 µM
[33] = test system: HCT-116; assay: Effect on mitosis in human HCT-116 cells assessed as disorganized spindle phenotype at 1 uM incubated for 48 hrs by immunofluorescence based analysis; type: functional, cell-based
[34] = test system: HCT-116; assay: Downregulation of CENPI expression in human HCT-116 cells incubated for 24 hrs by Western blot analysis; type: functional, cell-based
[35] = test system: HCT-116; assay: Induction of RBM39 degradation in human HCT-116 cells assessed as fold change at 1 uM incubated for 24 hrs by Western blot analysis relative to control; type: cell-based
[36] = test system: HCT-116; assay: Downregulation of CEP192 expression in human HCT-116 cells incubated for 24 hrs by Western blot analysis; type: functional, cell-based
[37] = test system: MV4-11; assay: Induction of spliceosome function impairment in human MV4-11 cells assessed as decrease in ZNF207 transcript at 1 to 10 uM incubated for 12 hrs by qRT-PCR analysis; type: functional, cell-based; details: dose 1-10 µM

SMILES | Activity [1] | Activity [2] | Activity [3] | Activity [4] | Activity [5] | Activity [6] | Activity [7] | Activity [8] | Activity [9] | Activity [10] | Activity [11] [%] | Activity [12] | Activity [13] | Activity [14] | Activity [15] | Activity [16] | Activity [17] | Activity [18] | Activity [19] | Activity [20] | other results
NS(=O)(=O)c1ccc(S(=O)(=O)Nc2cccc3c(Cl)c[nH]c23)cc1 [INDISULAM] | Active | Active | Active | Active | inactive | inactive | Active | Time-dependent-effect; Observed Skipping Exons 42 And 28 | Active | No effect | 1.4 | Active | Active | Active | Active | Active | Active | inactive | Dose-dependent-effect | Active | IC50 [21]: 417 nM; Activity [22]: 55%; fold change (FC) [23]: 0.59; Activity [24]: Active; Activity [25]: Dose-dependent-effect; Activity [26]: Active; Activity [27]: Active; Activity [28]: Active; Activity [29]: Active; Activity [30]: 667; Activity [31]: Active; Activity [32]: Active; Activity [33]: Active; Disorganized Spindle Phenotype Was Characterized By Random Microtubule Distribution Surrounding Condensed And Undivided Chromosomes; Activity [34]: Dose-dependent-effect; fold change (FC) [35]: 0.16; Activity [36]: Dose-dependent-effect; Activity [37]: Active
Cc1ccc(NS(=O)(=O)c2cccc(NC(=O)C(=O)N3CCC[C@@H]3CO)c2)c2[nH]cc(C#N)c12 | Active | Active | Active | Active | inactive | inactive | Active | Time-dependent-effect; Observed Skipping Exons 42 And 28 | Active | No effect | 0.8 | Active | Active | Active | Active | Active | Active | inactive | Dose-dependent-effect | Active | IC50 [21]: 594 nM; Activity [22]: 60%; fold change (FC) [23]: 0.61; Activity [24]: Active; Activity [25]: Dose-dependent-effect; Activity [26]: Active; Activity [27]: Active; Activity [28]: Active; Activity [29]: Active; Activity [30]: 515; Activity [31]: Active; Activity [32]: Active; Activity [33]: Active; Disorganized Spindle Phenotype Was Characterized By Random Microtubule Distribution Surrounding Condensed And Undivided Chromosomes; Activity [34]: Dose-dependent-effect; fold change (FC) [35]: 0.21; Activity [36]: Dose-dependent-effect; Activity [37]: Active
